Assay: Dissociation constant pKb of the amine additive (Table 1)
Type: physicochemical
Details: measured at 25° C
Description: The inventors have conducted an extensive study on suppression or inhibition of halogenation reaction which would occur during preparation of a halogenated aromatic amine. As a result, the inventors discovered that when a halogenated aromatic nitro compound is hydrogenated in the presence of a predetermined amount of a platinum catalyst together with an amine selected from the group consisting of an alkylmonoamine, an alicyclic amine and a polyalkylenepolyamine, the dehalogenation may be suppressed to a minimum. The present invention has been completed on the basis of this discovery. The alkylmonoamine, alicyclic amine and polyalkylenepolyamine have common properties that they are an organic nitrogen-containing base having a dissociation constant pKb lower than 4.2. The dissociation constant herein described means that which is defined according to the dissociation equilibrium of the usual acid or base, i.e., when an organic nitrogen-containing base is expressed by RN, the dissociation equilibrium of RN is expressed by a formula
RN + H2 O .revreaction. RNH^+ + OH^-
and the dissociation constant is defined as follows [formula] where [ ]means activity.
Though the dissociation constant pKb is generally more or less varied with temperature, the pKb value is measured at 25° C herein.

CC(C)N [isopropylamine]
Dissociation Constant pKb: 3.4

CN [methylamine]
Dissociation Constant pKb: 3.4

Reference: patent US4070401A, “Method for the preparation of a halogenated aromatic amine” (Mitsui Toatsu Chemicals Inc., priority 1972, dated 1978)
